Test results from patent US11926616B2, “Aminopyrazine diol compounds as PI3K-γ inhibitors” (Incyte Corporation, priority 2018, dated 2024).
Read-outs that look alike come from different tables or passages of the source.

What was measured:
[1] = test system: Phosphorylated Ribosomal Protein S6 (RPS6) in THP-1 cells; assay: THP-1 RPS6 ELISA Assay; type: cell-based, Human; details: Homo sapiens
Protocol: Example A. THP-1 RPS6 ELISA Assay
To measure the Phosphorylated Ribosomal Protein S6 (RPS6) in cell lysates, THP-1 cells (Human Acute Monocytic Leukemia) are purchased from ATCC (Manassas, VA) and maintained in RPMI with 10% FBS (Gibco/Life Technologies, Carlsbad, CA). For the assay, THP-1 cells are serum starved overnight in RPMI, then plated in RPMI (2×10^5 cells/well in 90 μL) into 96-well flat-bottom tissue culture treated plates (Corning, Corning, NY), in the presence or absence of a concentration range of test compounds. Covered plates are incubated for 2 hours at 37° C., 5% CO2 then treated with or without 10 nM MCP-1(MYBioSource, San Diego, CA) for 15 minutes at 37° C., 5% CO2. Plates are centrifuged at 1600 RPM and supernatants are removed. Cells are lysed in Lysis Buffer (Cell Signaling, Danvers, MA) with Protease Inhibitor (Calbiochem/EMD, Germany), PMSF (Sigma, St Louis MO), HALTS (Thermo Fisher, Rockford, IL) for 30 min on wet ice. Cell lysates are frozen at −80° C. before testing. The lysates are tested in the Human/Mouse/Rat Phospho-RPS6 ELISA (R&D Systems, Inc. Minn, MN). The plate is measured using a microplate reader (SpectraMax M5—Molecular Devices, LLC Sunnyvale, CA) set to 450 nm with a wavelength correction of 540. IC50 determination is performed by fitting the curve of inhibitor percent inhibition versus the log of the inhibitor concentration using the GraphPad Prism 5.0 software.

[2] = biological target: PI3Kγ (p110γ) Recombinant Human Protein (Homo sapiens (Human), UniProt P48736); assay: PI3K-γ Scintillation Proximity Assay; type: biochemical; details: 20 μM PIP2, 2 μM ATP, 13 nM PI3Kγ, 120 min, room temperature
Description: Example B. PI3K-γ Scintillation Proximity Assay Materials: [γ-^33P]ATP (10 mCi/mL) and Wheat Germ Agglutinin (WGA) YSi SPA Scintillation Beads was purchased from Perkin Elmer (Waltham, MA). Lipid kinase substrate, D-myo-Phosphatidylinositol 4,5-bisphosphate (PtdIns(4,5)P2)D (+)-sn-1,2-di-O-octanoylglyceryl, 3-O-phospho linked (PIP2), CAS 204858-53-7, was purchased from Echelon Biosciences (Salt Lake City, UT). PI3Kγ (p110γ) Recombinant Human Protein was purchased from Life technology (Grand Island, NY). ATP, MgCl2, DTT, EDTA, MOPS and CHAPS were purchased from Sigma Aldrich (St. Louis, MO). The kinase reaction was conducted in polystyrene 384-well Greiner Bio-one white plate from Thermo Fisher Scientific in a final volume of 25 μL. Inhibitors were first diluted serially in DMSO and added to the plate wells before the addition of other reaction components. The final concentration of DMSO in the assay was 2%. The PI3Kγ assay was carried out at room temperature in 20 mM MOPS, pH 6.7, 10 mM MgCl2, 5 mM DTT and CHAPS 0.03%. Reactions were initiated by the addition of ATP, the final reaction mixture consisted of 20 μM PIP2, 2 μM ATP, 0.5 μCi [γ-^33P] ATP, 13 nM PI3Kγ. Reactions were incubated for 120 min and terminated by the addition of 40 μL SPA beads suspended in quench buffer: 163 mM potassium phosphate pH 7.8, 20% glycerol, 25 mM EDTA. The final concentration of SPA beads is 1.0 mg/mL. After the plate sealing, plates were shaken overnight at room temperature and centrifuged at 1500 rpm for 10 min, the radioactivity of the product was determined by scintillation counting on Topcount (Perkin-Elmer). IC50 determination was performed by fitting the curve of percent of the solvent control activity versus the log of the inhibitor concentration using the GraphPad Prism 6.0 software.

[3] = biological target: PI3Kδ (p110δ/p85α) Recombinant Human Protein (Homo sapiens (Human), UniProt O00329); assay: PI3Kδ Scintillation Proximity Assay; type: biochemical; details: 20 μM PIP2, 2 μM ATP, 3.4 nM PI3Kδ, 120 min, room temperature
Description: Example C. PI3Kδ Scintillation Proximity Assay Materials: [γ-^33P]ATP (10 mCi/mL) and Wheat Germ Agglutinin (WGA) YSi SPA Scintillation Beads was purchased from Perkin Elmer (Waltham, MA). Lipid kinase substrate, D-myo-Phosphatidylinositol 4,5-bisphosphate (PtdIns(4,5)P2)D (+)-sn-1,2-di-O-octanoylglyceryl, 3-O-phospho linked (PIP2), CAS 204858-53-7, was purchased from Echelon Biosciences (Salt Lake City, UT). PI3Kδ (p110δ/p85α) Recombinant Human Protein was purchased from Eurofins (St Charles, MO). ATP, MgCl2, DTT, EDTA, MOPS and CHAPS were purchased from Sigma Aldrich (St. Louis, MO). The kinase reaction was conducted in polystyrene 384-well Greiner Bio-one white plate from Thermo Fisher Scientific in a final volume of 25 μL. Inhibitors were first diluted serially in DMSO and added to the plate wells before the addition of other reaction components. The final concentration of DMSO in the assay was 2%. The PI3Kδ assay was carried out at room temperature in 20 mM MOPS, pH 6.7, 10 mM MgCl2, 5 mM DTT and CHAPS 0.03%. Reactions were initiated by the addition of ATP, the final reaction mixture consisted of 20 μM PIP2, 2 μM ATP, […] [γ-^33P] ATP, 3.4 nM PI3Kδ. Reactions were incubated for 120 min and terminated by the addition of 40 μL SPA beads suspended in quench buffer: 163 mM potassium phosphate pH 7.8, 20% glycerol, 25 mM EDTA. The final concentration of SPA beads is 1.0 mg/mL. After the plate sealing, plates were shaken overnight at room temperature and centrifuged at 1500 rpm for 10 min, the radioactivity of the product was determined by scintillation counting on Topcount (PerkinElmer). IC50 determination was performed by fitting the curve of percent of the solvent control activity versus the log of the inhibitor concentration using the GraphPad Prism 6.0 software.

[4] = THP-1 cells, serum starved, 2 hours compound, 10 nM MCP-1 for 15 minutes, Phospho-RPS6 ELISA, read-out: PI3Kγ_THP1_RPS6_ELISA IC50

Sequence of PI3Kγ (p110γ) Recombinant Human Protein (P48736 whole entry): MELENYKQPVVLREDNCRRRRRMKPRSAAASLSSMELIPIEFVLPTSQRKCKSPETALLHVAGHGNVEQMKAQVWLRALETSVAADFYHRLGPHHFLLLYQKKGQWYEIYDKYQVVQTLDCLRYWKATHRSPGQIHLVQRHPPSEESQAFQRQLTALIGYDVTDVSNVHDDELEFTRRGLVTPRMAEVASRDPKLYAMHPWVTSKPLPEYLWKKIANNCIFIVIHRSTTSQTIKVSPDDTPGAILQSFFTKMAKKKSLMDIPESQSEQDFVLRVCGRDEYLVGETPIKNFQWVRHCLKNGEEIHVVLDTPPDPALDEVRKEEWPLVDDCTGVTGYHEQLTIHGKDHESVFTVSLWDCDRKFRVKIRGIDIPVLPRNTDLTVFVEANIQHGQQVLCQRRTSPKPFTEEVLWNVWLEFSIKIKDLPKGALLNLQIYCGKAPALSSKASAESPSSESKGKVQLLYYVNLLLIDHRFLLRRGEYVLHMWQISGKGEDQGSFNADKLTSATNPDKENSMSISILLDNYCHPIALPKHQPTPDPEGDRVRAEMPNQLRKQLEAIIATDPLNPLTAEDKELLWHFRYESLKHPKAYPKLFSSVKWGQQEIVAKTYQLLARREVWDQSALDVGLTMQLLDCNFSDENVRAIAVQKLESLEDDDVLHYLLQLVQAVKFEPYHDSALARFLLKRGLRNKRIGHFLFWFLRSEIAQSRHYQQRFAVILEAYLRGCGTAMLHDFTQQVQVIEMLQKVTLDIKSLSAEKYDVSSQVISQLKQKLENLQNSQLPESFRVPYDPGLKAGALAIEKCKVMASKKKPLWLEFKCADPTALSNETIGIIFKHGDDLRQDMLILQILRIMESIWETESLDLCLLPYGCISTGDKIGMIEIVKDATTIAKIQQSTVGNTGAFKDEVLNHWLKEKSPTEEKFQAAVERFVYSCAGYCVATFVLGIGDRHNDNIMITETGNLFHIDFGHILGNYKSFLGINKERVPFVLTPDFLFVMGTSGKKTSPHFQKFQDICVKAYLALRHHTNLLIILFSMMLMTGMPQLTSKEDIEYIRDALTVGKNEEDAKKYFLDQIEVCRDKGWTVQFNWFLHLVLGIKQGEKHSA
Sequence of PI3Kδ (p110δ/p85α) Recombinant Human Protein (O00329 whole entry): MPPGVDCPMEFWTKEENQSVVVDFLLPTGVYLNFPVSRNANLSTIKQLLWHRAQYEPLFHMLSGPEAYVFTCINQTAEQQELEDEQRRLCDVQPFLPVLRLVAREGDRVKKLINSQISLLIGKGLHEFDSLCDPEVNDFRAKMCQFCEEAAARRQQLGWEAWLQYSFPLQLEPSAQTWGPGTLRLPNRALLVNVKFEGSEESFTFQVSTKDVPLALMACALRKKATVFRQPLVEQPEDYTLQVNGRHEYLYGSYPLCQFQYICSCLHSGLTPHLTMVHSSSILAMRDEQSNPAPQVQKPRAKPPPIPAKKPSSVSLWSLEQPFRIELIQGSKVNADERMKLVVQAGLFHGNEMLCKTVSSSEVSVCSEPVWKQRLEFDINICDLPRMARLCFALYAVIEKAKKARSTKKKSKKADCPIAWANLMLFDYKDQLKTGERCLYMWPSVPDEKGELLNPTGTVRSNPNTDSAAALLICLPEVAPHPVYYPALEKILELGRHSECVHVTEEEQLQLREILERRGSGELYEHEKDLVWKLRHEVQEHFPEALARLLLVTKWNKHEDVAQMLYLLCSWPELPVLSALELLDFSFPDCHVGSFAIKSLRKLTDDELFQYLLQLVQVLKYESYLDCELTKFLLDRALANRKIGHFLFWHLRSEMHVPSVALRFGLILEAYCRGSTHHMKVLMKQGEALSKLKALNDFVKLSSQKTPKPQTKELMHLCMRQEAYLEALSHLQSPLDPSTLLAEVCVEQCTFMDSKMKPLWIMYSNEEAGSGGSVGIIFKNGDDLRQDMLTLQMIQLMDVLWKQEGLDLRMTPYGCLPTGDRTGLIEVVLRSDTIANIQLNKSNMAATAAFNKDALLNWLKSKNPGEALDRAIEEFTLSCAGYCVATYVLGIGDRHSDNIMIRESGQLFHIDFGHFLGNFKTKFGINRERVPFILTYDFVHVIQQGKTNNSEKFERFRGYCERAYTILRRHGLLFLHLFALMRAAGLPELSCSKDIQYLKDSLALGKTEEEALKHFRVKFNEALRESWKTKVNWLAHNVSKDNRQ
Sequence of PI3Kδ (p110δ/p85α) Recombinant Human Protein (P27986 whole entry partner): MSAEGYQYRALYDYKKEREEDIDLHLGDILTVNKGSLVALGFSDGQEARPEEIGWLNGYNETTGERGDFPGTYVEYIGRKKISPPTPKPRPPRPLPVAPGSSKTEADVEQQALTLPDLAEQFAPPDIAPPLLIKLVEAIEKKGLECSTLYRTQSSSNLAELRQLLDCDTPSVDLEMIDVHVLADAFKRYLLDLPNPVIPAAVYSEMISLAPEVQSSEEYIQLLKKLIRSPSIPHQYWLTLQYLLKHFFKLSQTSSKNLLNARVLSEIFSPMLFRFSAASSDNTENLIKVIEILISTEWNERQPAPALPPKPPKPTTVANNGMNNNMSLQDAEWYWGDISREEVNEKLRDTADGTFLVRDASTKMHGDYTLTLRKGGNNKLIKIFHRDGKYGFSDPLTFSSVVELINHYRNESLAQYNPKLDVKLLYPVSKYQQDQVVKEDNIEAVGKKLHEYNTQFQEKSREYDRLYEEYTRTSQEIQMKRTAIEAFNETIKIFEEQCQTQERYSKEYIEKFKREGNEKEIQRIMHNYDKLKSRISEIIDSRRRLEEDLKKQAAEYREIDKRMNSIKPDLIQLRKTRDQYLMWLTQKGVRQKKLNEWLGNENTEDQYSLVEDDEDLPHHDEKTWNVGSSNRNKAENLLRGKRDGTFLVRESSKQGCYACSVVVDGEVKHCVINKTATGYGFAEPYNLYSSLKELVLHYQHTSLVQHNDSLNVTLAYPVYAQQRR

IC50 [1, 4] [nM]	Structure (SMILES)	other results
< 100	Cc1cc(-c2nc(-c3cc(C(O)(CO)C(F)(F)F)ccc3C)cnc2N)on1 (single isomer, unassigned) [Example 4, 2-(3-(5-Amino-6-(3-methylisoxazol-5-yl)pyrazin-2-yl)-4-methylphenyl)-3,3,3-trifluoropropane-1,2-diol]	–
< 100	Cc1ccc(C(O)(CO)C(F)(F)F)cc1-c1cnc(N)c(-c2ccns2)n1 (single isomer, unassigned) [Example 6, 2-(3-(5-Amino-6-(isothiazol-5-yl)pyrazin-2-yl)-4-methylphenyl)-3,3,3-trifluoropropane-1,2-diol]	–
< 100	Cc1ccc(C(O)(CO)C(F)(F)F)cc1-c1cnc(N)c(-c2cnn(C)c2)n1 (single isomer, unassigned) [Example 2, 2-(3-(5-Amino-6-(1-methyl-1H-pyrazol-4-yl)pyrazin-2-yl)-4-methylphenyl)-3,3,3-trifluoropropane-1,2-diol]	–
< 100	Cc1ccc(C(O)(CO)C(F)(F)F)cc1-c1cnc(N)c(-c2cn[nH]c2)n1 (single isomer, unassigned) [Example 3, 2-(3-(5-Amino-6-(1H-pyrazol-4-yl)pyrazin-2-yl)-4-methylphenyl)-3,3,3-trifluoropropane-1,2-diol]	–
< 100	Cc1cc(-c2nc(-c3cc(C(O)(CO)C(F)(F)F)ccc3C)cnc2N)sn1 (single isomer, unassigned) [Example 7, 2-(3-(5-amino-6-(3-methylisothiazol-5-yl)pyrazin-2-yl)-4-methylphenyl)-3,3,3-trifluoropropane-1,2-diol]	–
< 100	Cc1ccc(C(O)(CO)C(F)(F)F)cc1-c1cnc(N)c(-c2cnsc2)n1 (single isomer, unassigned) [Example 5, 2-(3-(5-Amino-6-(isothiazol-4-yl)pyrazin-2-yl)-4-methylphenyl)-3,3,3-trifluoropropane-1,2-diol]	–
< 100	Cc1ccc(C(O)(CO)C(F)(F)F)cc1-c1cnc(N)c(-c2cnco2)n1 (single isomer, unassigned) [Example 11, 2-(3-(5-Amino-6-(oxazol-5-yl)pyrazin-2-yl)-4-methylphenyl)-3,3,3-trifluoropropane-1,2-diol]	–
< 100	Cc1ncc(-c2nc(-c3cc(C(O)(CO)C(F)(F)F)ccc3C)cnc2N)s1 (single isomer, unassigned) [Example 10, 2-(3-(5-Amino-6-(2-methylthiazol-5-yl)pyrazin-2-yl)-4-methvlphenyl)-3,3,3-trifluoropropane-1,2-diol]	–

The next lines start with the compound.

Structure (SMILES)	IC50 [1, 4] [nM]	other results
[2H]C([2H])([2H])c1ccc(C(O)(CO)C(F)(F)F)cc1-c1cnc(N)c(C(=O)NC23CC(CO)(C2)C3)n1 (single isomer, unassigned) [Example 32]	< 100	–
[2H]C([2H])([2H])c1ccc(C(O)(CO)C(F)(F)F)cc1-c1cnc(N)c(C(=O)N[C@@H](C)CO)n1 (single isomer, unassigned) [Example 33]	< 100	–
Cc1ccc(C(O)(CO)C(F)(F)F)cc1-c1cnc(N)c(C(=O)N[C@H](C)CO)n1 (single isomer, unassigned) [Example 36]	–	IC50 [2]: ≤ 100 nM; IC50 [3]: ≤ 100 nM
[2H]C([2H])([2H])c1ccc(C(O)(C(O)C(F)(F)F)C(F)(F)F)cc1-c1cnc(N)c(-c2c[nH]nc2C)n1 (stereo not shown) [Example 20, 2-(3-(5-Amino-6-(3-methyl-1H-pyrazol-4-yl)pyrazin-2-yl)-4-(methyl-d3)phenyl)-1,1,1,4,4,4-hexafluorobutane-2,3-diol]	–	IC50 [2]: ≤ 100 nM; IC50 [3]: ≤ 500 nM
Cc1ccc(C(O)(CO)C(F)(F)F)cc1-c1cnc(N)c(C(=O)NC23CCC(O)(CC2)C3)n1 (single isomer, unassigned) [Example 35]	–	IC50 [2]: ≤ 100 nM; IC50 [3]: ≤ 100 nM
[2H]C([2H])([2H])n1nccc1-c1nc(-c2cc(C(O)(CO)C(F)(F)F)ccc2C)cnc1N (single isomer, unassigned) [Example 1b, 2-(3-(5-Amino-6-(1-(methyl-d3)-1H-pyrazol-5-yl)pyrazin-2-yl)-4-methylphenyl)-3,3,3-trifluoropropane-1,2-diol]	–	IC50 [2]: ≤ 500 nM; IC50 [3]: ≤ 500 nM
Cc1ccc(C(O)(CO)C(F)(F)F)cc1-c1cnc(N)c(C(=O)N[C@@H](C)CO)n1 (single isomer, unassigned) [Example 33]	–	IC50 [2]: ≤ 100 nM; IC50 [3]: ≤ 100 nM
[2H]C([2H])([2H])c1ccc(C(O)(CO)C(F)(F)F)cc1-c1cnc(N)c(C(=O)NCC(C)(C)C#N)n1 (single isomer, unassigned) [Example 34]	< 100	–
Cc1ccc(C(O)(CO)C(F)(F)F)cc1-c1cnc(N)c(-n2ccnn2)n1 (single isomer, unassigned) [Example 13, 2-(3-(5-Amino-6-(1H-1,2,3-triazol-1-yl)pyrazin-2-yl)-4-methylphenyl)-3,3,3-trifluoropropane-1,2-diol]	< 100	–
Cc1ccc(C(O)(CO)C(F)(F)F)cc1-c1cnc(N)c(C(=O)NC23CC(CO)(C2)C3)n1 (single isomer, unassigned) [Example 32]	–	IC50 [2]: ≤ 100 nM; IC50 [3]: ≤ 100 nM
Cc1ccc([C@](O)(CO)C(F)F)cc1-c1cnc(N)c(C(=O)NC(C)C)n1 (single isomer, unassigned) [Example 46]	–	IC50 ([1]; THP-1, read-out: PI3Kγ_THP1_RPS6_ELISA IC50 (nM)): < 100 nM
Cc1ccc(C(O)(CO)C(F)(F)F)cc1-c1cnc(N)c(-n2cncn2)n1 (single isomer, unassigned) [Example 15, 2-(3-(5-Amino-6-(1H-1,2,4-triazol-1-yl)pyrazin-2-yl)-4-methylphenyl)-3,3,3-trifluoropropane-1,2-diol]	< 500	–
[2H]C([2H])([2H])c1ccc(C(O)(CO)C(F)(F)F)cc1-c1cnc(N)c(C(=O)NC23CCC(O)(CC2)C3)n1 (single isomer, unassigned) [Example 35]	< 100	–
[2H]C([2H])([2H])c1ccc(C(O)(CO)C(F)(F)F)cc1-c1cnc(N)c(C(=O)N[C@H](C)CO)n1 (single isomer, unassigned) [Example 36]	< 500	–
